Measured values published in patent US10597388B2, “Pyridazinone herbicides” (FMC CORPORATION, priority 2014, dated 2020).

How the values were obtained:
Experiment in all cases: Test C greenhouse herbicide test, pre- and postemergence
Assay type in all cases: in vivo
[1] = test system: morningglory (Ipomoea coccinea)
In short: (§1)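 Preemergence: seeds sown in a loam soil–sand blend and sprayed with test chemicals in a non-phytotoxic solvent mixture containing surfactant. Postemergence: plants grown in peat-based medium and treated at 2 to 18 cm (1- to 4-leaf stage). After 13 to 15 d in a greenhouse, injury was visually rated 0–100 against controls.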

[2] = test system: galium (catchweed bedstraw, Galium aparine)
In short: as §1

[3] = test system: foxtail, giant (giant foxtail, Setaria faberii)
In short: as §1

[4] = test system: nutsedge, yellow (yellow nutsedge, Cyperus esculentus)
In short: as §1

[5] = test system: waterhemp (common waterhemp, Amaranthus rudis)
In short: as §1

[6] = test system: velvetleaf (Abutilon theophrasti)
In short: as §1

[7] = test system: ryegrass, Italian (Italian ryegrass, Lolium multiflorum)
In short: as §1

[8] = test system: johnsongrass (Sorghum halepense)
In short: as §1

[9] = test system: blackgrass (Alopecurus myosuroides)
In short: as §1

[10] = test system: corn (Zea mays)
In short: as §1

[11] = test system: oilseed rape (Brassica napus)
In short: as §1

[12] = test system: ragweed (common ragweed, Ambrosia elatior)
In short: as §1

[13] = test system: barnyardgrass (Echinochloa crus-galli)
In short: as §1

[14] = test system: lambsquarters (Chenopodium album)
In short: as §1

[15] = test system: pigweed (Amaranthus retroflexus)
In short: as §1

[16] = test system: crabgrass, large (large crabgrass, Digitaria sanguinalis)
In short: as §1

[17] = Postemergence, 31 g ai/ha, scale 0 to 100 (0 no effect, 100 complete control)
[18] = Postemergence, 62 g ai/ha, 0 to 100 scale (0 no effect, 100 complete control)
[19] = Postemergence, 250 g ai/ha, scale 0 to 100, 0 no effect, 100 complete control, 13 to 15 d
[20] = Preemergence, 31 g ai/ha, scale 0 to 100, 0 is no effect, 100 is complete control
[21] = Preemergence, 62 g ai/ha, scale 0 to 100, 0 is no effect, 100 is complete control
[22] = Preemergence, 125 g ai/ha, scale 0 to 100, 0 is no effect, 100 is complete control
[23] = Preemergence, 250 g ai/ha, scale 0 to 100 (0 no effect, 100 complete control)
[24] = postemergence, 125 g ai/ha, scale 0 to 100, 0 no effect, 100 complete control

CC(=O)Oc1c(Br)nn(C)c(=O)c1-c1c(C)ccc2ccccc12 [Compound 129]
Plant response rating, Morningglory [1, 17]: 98 | Morningglory plant response rating [1, 18]: 100 | Plant response rating, Morningglory [1, 19]: 100 | Plant response rating, Morningglory [1, 20]: 85 | Plant response rating, Morningglory [1, 21]: 90 | Plant response rating, Morningglory [1, 22]: 90 | Morningglory plant response rating [1, 23]: 98 | Morningglory plant response rating [1, 24]: 100 | Plant response rating, Galium [2, 17]: 95 | Galium plant response rating [2, 18]: 100 | Plant response rating, Galium [2, 19]: 100 | Plant response rating, Galium [2, 20]: 95 | Plant response rating, Galium [2, 21]: 98 | Plant response rating, Galium [2, 22]: 100 | Galium plant response rating [2, 23]: 98 | Galium plant response rating [2, 24]: 100 | Plant response rating, Foxtail, Giant [3, 17]: 60 | Foxtail, Giant plant response rating [3, 18]: 75 | Plant response rating, Foxtail, Giant [3, 19]: 95 | Plant response rating, Foxtail, Giant [3, 20]: 85 | Plant response rating, Foxtail, Giant [3, 21]: 90 | Plant response rating, Foxtail, Giant [3, 22]: 95 | Foxtail, Giant plant response rating [3, 23]: 98 | Foxtail, Giant plant response rating [3, 24]: 85 | Plant response rating, Nutsedge, Yellow [4, 17]: 60 | Nutsedge, Yellow plant response rating [4, 18]: 75 | Plant response rating, Nutsedge, Yellow [4, 19]: 95 | Plant response rating, Nutsedge, Yellow [4, 20]: 55 | Plant response rating, Nutsedge, Yellow [4, 21]: 85 | Plant response rating, Nutsedge, Yellow [4, 22]: 90 | Nutsedge, Yellow plant response rating [4, 23]: 95 | Nutsedge, Yellow plant response rating [4, 24]: 85 | Plant response rating, Waterhemp [5, 17]: 75 | Waterhemp plant response rating [5, 18]: 70 | Plant response rating, Waterhemp [5, 19]: 98 | Plant response rating, Waterhemp [5, 20]: 90 | Plant response rating, Waterhemp [5, 21]: 95 | Plant response rating, Waterhemp [5, 22]: 100 | Waterhemp plant response rating [5, 23]: 100 | Waterhemp plant response rating [5, 24]: 85 | Plant response rating, Velvetleaf [6, 17]: 85 | Velvetleaf plant response rating [6, 18]: 95 | Plant response rating, Velvetleaf [6, 19]: 100 | Plant response rating, Velvetleaf [6, 20]: 70 | Plant response rating, Velvetleaf [6, 21]: 85 | Plant response rating, Velvetleaf [6, 22]: 98 | Velvetleaf plant response rating [6, 23]: 98 | Velvetleaf plant response rating [6, 24]: 95 | Plant response rating, Ryegrass, Italian [7, 17]: 70 | Ryegrass, Italian plant response rating [7, 18]: 90 | Plant response rating, Ryegrass, Italian [7, 19]: 95 | Plant response rating, Ryegrass, Italian [7, 20]: 90 | Plant response rating, Ryegrass, Italian [7, 21]: 90 | Plant response rating, Ryegrass, Italian [7, 22]: 95 | Ryegrass, Italian plant response rating [7, 23]: 95 | Ryegrass, Italian plant response rating [7, 24]: 95 | Plant response rating, Johnsongrass [8, 17]: 10 | Johnsongrass plant response rating [8, 18]: 15 | Plant response rating, Johnsongrass [8, 19]: 25 | Plant response rating, Johnsongrass [8, 20]: 5 | Plant response rating, Johnsongrass [8, 21]: 5 | Plant response rating, Johnsongrass [8, 22]: 10 | Johnsongrass plant response rating [8, 23]: 25 | Johnsongrass plant response rating [8, 24]: 15 | Plant response rating, Blackgrass [9, 17]: 35 | Blackgrass plant response rating [9, 18]: 40 | Plant response rating, Blackgrass [9, 19]: 80 | Plant response rating, Blackgrass [9, 20]: 5 | Plant response rating, Blackgrass [9, 21]: 30 | Plant response rating, Blackgrass [9, 22]: 70 | Blackgrass plant response rating [9, 23]: 80 | Blackgrass plant response rating [9, 24]: 60 | Plant response rating, Corn [10, 17]: 0 | Corn plant response rating [10, 18]: 20 | Plant response rating, Corn [10, 19]: 30 | Plant response rating, Corn [10, 20]: 0 | Plant response rating, Corn [10, 21]: 5 | Plant response rating, Corn [10, 22]: 15 | Corn plant response rating [10, 23]: 40 | Corn plant response rating [10, 24]: 30 | Plant response rating, Oilseed Rape [11, 17]: 0 | Oilseed Rape plant response rating [11, 18]: 0 | Plant response rating, Oilseed Rape [11, 19]: 5 | Plant response rating, Oilseed Rape [11, 20]: 5 | Plant response rating, Oilseed Rape [11, 21]: 50 | Plant response rating, Oilseed Rape [11, 22]: 90 | Oilseed Rape plant response rating [11, 23]: 90 | Oilseed Rape plant response rating [11, 24]: 5 | Plant response rating, Ragweed [12, 17]: 90 | Ragweed plant response rating [12, 18]: 90 | Plant response rating, Ragweed [12, 19]: 95 | Plant response rating, Ragweed [12, 20]: 70 | Plant response rating, Ragweed [12, 21]: 85 | Plant response rating, Ragweed [12, 22]: 95 | Ragweed plant response rating [12, 23]: 95 | Ragweed plant response rating [12, 24]: 95 | Plant response rating, Barnyardgrass [13, 17]: 50 | Barnyardgrass plant response rating [13, 18]: 65 | Plant response rating, Barnyardgrass ([13]; Postemergence, 125 g ai/ha, scale 0 to 100, 0 is no effect, 100 is complete control): 70 | Plant response rating, Barnyardgrass [13, 19]: 85 | Plant response rating, Barnyardgrass [13, 20]: 15 | Plant response rating, Barnyardgrass [13, 21]: 70 | Plant response rating, Barnyardgrass [13, 22]: 100 | Barnyardgrass plant response rating [13, 23]: 90 | Plant response rating, Lambsquarters [14, 17]: 95 | Lambsquarters plant response rating [14, 18]: 95 | Plant response rating, Lambsquarters [14, 19]: 98 | Plant response rating, Lambsquarters [14, 20]: 85 | Plant response rating, Lambsquarters [14, 21]: 80 | Plant response rating, Lambsquarters [14, 22]: 85 | Lambsquarters plant response rating [14, 23]: 90 | Lambsquarters plant response rating [14, 24]: 95 | Plant response rating, Pigweed [15, 17]: 95 | Pigweed plant response rating [15, 18]: 95 | Plant response rating, Pigweed [15, 19]: 98 | Plant response rating, Pigweed [15, 20]: 100 | Plant response rating, Pigweed [15, 21]: 98 | Plant response rating, Pigweed [15, 22]: 98 | Pigweed plant response rating [15, 23]: 100 | Pigweed plant response rating [15, 24]: 98 | Plant response rating, Crabgrass, Large [16, 17]: 20 | Crabgrass, Large plant response rating [16, 18]: 30 | Plant response rating, Crabgrass, Large [16, 19]: 60 | Plant response rating, Crabgrass, Large [16, 20]: 5 | Plant response rating, Crabgrass, Large [16, 21]: 25 | Plant response rating, Crabgrass, Large [16, 22]: 75 | Crabgrass, Large plant response rating [16, 23]: 85 | Crabgrass, Large plant response rating [16, 24]: 35
